Like-named read-outs stand apart in the source and are kept apart here.
Legend:
[1] = molecular target: T1, rat CB2 receptor (rCB2) (Rattus norvegicus, UniProt Q9QZN9); experiment: cell-based; type: cell-based; details: for +/− RCB2: agonist or inverse agonist at rCB2
T1 sequence (Q9QZN9 1-360): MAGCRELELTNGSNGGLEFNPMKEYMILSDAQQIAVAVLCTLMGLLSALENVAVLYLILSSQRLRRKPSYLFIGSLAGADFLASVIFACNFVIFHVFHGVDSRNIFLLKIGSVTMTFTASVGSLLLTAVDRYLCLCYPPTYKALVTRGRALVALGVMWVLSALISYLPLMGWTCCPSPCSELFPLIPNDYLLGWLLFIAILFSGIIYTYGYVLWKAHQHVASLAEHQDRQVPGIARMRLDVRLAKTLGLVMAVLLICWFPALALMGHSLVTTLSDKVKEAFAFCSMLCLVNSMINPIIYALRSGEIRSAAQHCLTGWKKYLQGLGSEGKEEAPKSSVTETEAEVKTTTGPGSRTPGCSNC
Method in brief: (§1)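 Agonism or inverse agonism was assessed as change in intracellular cAMP in CHO-K1 cells expressing human CB1 or rat CB2 (genomic DNA, pcDNA3.1).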

[2] = molecular target: human CB1 receptor (hCB1) (Homo sapiens, UniProt P21554); experiment: cell-based; type: cell-based; details: for +/− HCB1: agonist or inverse agonist at hCB1
Method in brief: as §1

[3] = groups >100 nM-10 μM and >10 μM, cAMP, CHO-K1 rCB2, read-out: EC50 RCB2
[4] = groups >100 nM-10 μM and >10 μM, cAMP, CHO-K1 hCB1, read-out: EC50 HCB1

Chain of human CB1 receptor (hCB1) (P21554 whole entry): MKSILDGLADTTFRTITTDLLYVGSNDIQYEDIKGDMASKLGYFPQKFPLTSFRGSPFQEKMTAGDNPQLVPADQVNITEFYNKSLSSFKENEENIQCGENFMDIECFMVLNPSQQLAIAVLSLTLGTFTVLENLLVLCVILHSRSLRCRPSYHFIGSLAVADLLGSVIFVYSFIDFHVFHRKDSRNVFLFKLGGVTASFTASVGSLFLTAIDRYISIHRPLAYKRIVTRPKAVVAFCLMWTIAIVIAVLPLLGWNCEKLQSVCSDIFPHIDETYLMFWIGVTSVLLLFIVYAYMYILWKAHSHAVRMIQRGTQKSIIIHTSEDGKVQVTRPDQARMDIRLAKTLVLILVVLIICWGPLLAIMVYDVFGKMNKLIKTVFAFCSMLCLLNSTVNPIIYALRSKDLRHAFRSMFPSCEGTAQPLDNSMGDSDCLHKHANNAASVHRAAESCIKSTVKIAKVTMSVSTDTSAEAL

| Compound | +/− RCB2 [1] | EC50 [2] [nM] | further results |
| --- | --- | --- | --- |
| CNC(=O)[C@@H](NC(=O)c1nc(C2CC2)n2c1CN(C)CCC2)C(C)(C)C [Compound 435, (S)-3-cyclopropyl-N-(3,3-dimethyl-1-(methylamino)-1-oxobutan-2-yl)-8-methyl-6,7,8,9-tetrahydro-5H-imidazo[1,5-a][1,4]diazepine-1-carboxamide] | + | > 10000 |  |
| CNC(=O)[C@H](C)NC(=O)c1nc(-c2ccccc2)n2c1CN(S(=O)(=O)c1ccc(F)cc1)CC2 [Compound 110, (S)-7-(4-fluorophenylsulfonyl)-N-(1-(methylamino)-1-oxopropan-2-yl)-3-phenyl-5,6,7,8-tetrahydroimidazo[1,5-a]pyrazine-1-carboxamide] | + | > 10000 |  |
| CNC(=O)[C@H](CC(C)(C)C)NC(=O)c1nc(-c2cc(Cl)c(F)cc2F)n2c1CN(C)CCC2 [Compound 554, (S)-3-(5-chloro-2,4-difluorophenyl)-N-(4,4-dimethyl-1-(methylamino)-1-oxopentan-2-yl)-8-methyl-6,7,8,9-tetrahydro-5H-imidazo[1,5-a][1,4]diazepine-1-carboxamide] | + |  | +/− HCB1 [2]: + |
| CNC(=O)[C@@H](NC(=O)c1nc(-c2cccc3ccccc23)n2c1CN(C)CCC2)C(C)(C)C [Compound 417, (S)-N-(3,3-dimethyl-1-(methylamino)-1-oxobutan-2-yl)-8-methyl-3-(naphthalen-1-yl)-6,7,8,9-tetrahydro-5H-imidazo[1,5-a][1,4]diazepine-1-carboxamide] | + | > 10000 |  |
| CNC(=O)[C@@H](NC(=O)c1nc(C(O)c2ccccc2)n2c1CN(C)CC2)C(C)(C)C (stereo partly drawn) [Compound 295, N-((S)-3,3-dimethyl-1-(methylamino)-1-oxobutan-2-yl)-3-(hydroxy(phenyl)methyl)-7-methyl-5,6,7,8-tetrahydroimidazo[1,5-a]pyrazine-1-carboxamide] |  | > 10000 | EC50 [1]: > 10000 nM |
| CNC(=O)[C@@H](NC(=O)c1nc(C2CCC(F)(F)CC2)n2c1CN(C)CCC2)C(C)(C)C [Compound 528, (S)-3-(4,4-difluorocyclohexyl)-N-(3,3-dimethyl-1-(methylamino)-1-oxobutan-2-yl)-8-methyl-6,7,8,9-tetrahydro-5H-imidazo[1,5-a][1,4]diazepine-1-carboxamide] | + | > 10000 |  |
| CN1CCn2c(-c3ccccc3)nc(C(=O)NCC3OCCO3)c2C1 [Compound 234, N-((1,3-dioxolan-2-yl)methyl)-7-methyl-3-phenyl-5,6,7,8-tetrahydroimidazo[1,5-a]pyrazine-1-carboxamide] | + | > 10000 |  |
| CCCc1nc(C(=O)N[C@H](C(=O)NC)C(C)(C)C)c2n1CCN(C)C2 [Compound 304, (S)-N-(3,3-dimethyl-1-(methylamino)-1-oxobutan-2-yl)-7-methyl-3-propyl-5,6,7,8-tetrahydroimidazo[1,5-a]pyrazine-1-carboxamide] | + | > 10000 |  |
| CNC(=O)[C@@H](NC(=O)c1nc(-c2ccc(F)c(C(=O)N3CCOCC3)c2)n2c1CN(C)CCC2)C(C)(C)C [Compound 389, (S)-N-(3,3-dimethyl-1-(methylamino)-1-oxobutan-2-yl)-3-(4-fluoro-3-(morpholine-4-carbonyl)phenyl)-8-methyl-6,7,8,9-tetrahydro-5H-imidazo[1,5-a][1,4]diazepine-1-carboxamide] |  | > 10000 | EC50 [1]: > 10000 nM |
| CNC(=O)[C@@H](NC(=O)c1nc(-c2cccc(C#N)c2)n2c1CN(C)CCC2)C(C)(C)C [Compound 328, (S)-3-(3-cyanophenyl)-N-(3,3-dimethyl-1-(methylamino)-1-oxobutan-2-yl)-8-methyl-6,7,8,9-tetrahydro-5H-imidazo[1,5-a][1,4]diazepine-1-carboxamide] | + | > 10000 |  |
| CNC(=O)[C@@H](NC(=O)c1nc(-c2ccc(Cl)cc2F)n2c1CN(CC(C)C)CCC2)C(C)(C)C [Compound 322, (S)-3-(4-chloro-2-fluorophenyl)-N-(3,3-dimethyl-1-(methylamino)-1-oxobutan-2-yl)-8-isobutyl-6,7,8,9-tetrahydro-5H-imidazo[1,5-a][1,4]diazepine-1-carboxamide] | − | > 10000 |  |
| O=C(NC1CCCCC1)c1nc(-c2ccccc2)n2c1CNCC2 [Compound 47, N-cyclohexyl-3-phenyl-5,6,7,8-tetrahydroimidazo[1,5-a]pyrazine-1-carboxamide] |  |  | EC50 [1, 3]: > 10000 nM; EC50 [2, 4]: > 10000 nM |
| CNC(=O)[C@@H](NC(=O)c1nc(-c2ccc(-c3ccccc3)c(F)c2)n2c1CN(C)CCC2)C(C)(C)C [Compound 419, (S)-N-(3,3-dimethyl-1-(methylamino)-1-oxobutan-2-yl)-3-(2-fluorobiphenyl-4-yl)-8-methyl-6,7,8,9-tetrahydro-5H-imidazo[1,5-a][1,4]diazepine-1-carboxamide] |  | > 10000 | EC50 [1]: > 10000 nM |
| CNC(=O)[C@@H](NC(=O)c1nc(/C=C/CN2CCCCC2)n2c1CN(C)CC2)C(C)(C)C [Compound 287, (S,E)-N-(3,3-dimethyl-1-(methylamino)-1-oxobutan-2-yl)-7-methyl-3-(3-(piperidin-1-yl)prop-1-enyl)-5,6,7,8-tetrahydroimidazo[1,5-a]pyrazine-1-carboxamide] | + | > 10000 |  |
| O=C(Nc1ccccc1)c1nc(-c2ccccc2)n2c1CNCC2 [Compound 41, N,3-diphenyl-5,6,7,8-tetrahydroimidazo[1,5-a]pyrazine-1-carboxamide] |  |  | EC50 [1, 3]: > 10000 nM; EC50 [2, 4]: > 10000 nM |
| CN1CCCn2c(-c3ccc(F)cc3F)nc(C(=O)N[C@H](C(=O)N(C)C)C(C)(C)C)c2C1 [Compound 563, (S)-3-(2,4-difluorophenyl)-N-(1-(dimethylamino)-3,3-dimethyl-1-oxobutan-2-yl)-8-methyl-6,7,8,9-tetrahydro-5H-imidazo[1,5-a][1,4]diazepine-1-carboxamide] | + |  | +/− HCB1 [2]: + |
| CNC(=O)[C@@H](NC(=O)c1nc(-c2ccccc2)n2c1CN(S(=O)(=O)c1ccc(F)cc1)CC2)C(C)(C)C [Compound 93, (S)-N-(3,3-dimethyl-1-(methylamino)-1-oxobutan-2-yl)-7-(4-fluorophenylsulfonyl)-3-phenyl-5,6,7,8-tetrahydroimidazo[1,5-a]pyrazine-1-carboxamide] | − | > 10000 |  |
| CNC(=O)[C@@H](NC(=O)c1nc(C=C(C)C)n2c1CN(C)CC2)C(C)(C)C [Compound 257, (S)-N-(3,3-dimethyl-1-(methylamino)-1-oxobutan-2-yl)-7-methyl-3-(2-methylprop-1-enyl)-5,6,7,8-tetrahydroimidazo[1,5-a]pyrazine-1-carboxamide] | + | > 10000 |  |
| CNC(=O)[C@@H](NC(=O)c1nc(-c2cccc(Cl)c2)n2c1CN(C)CCC2)C(C)(C)C [Compound 433, (S)-3-(3-chlorophenyl)-N-(3,3-dimethyl-1-(methylamino)-1-oxobutan-2-yl)-8-methyl-6,7,8,9-tetrahydro-5H-imidazo[1,5-a][1,4]diazepine-1-carboxamide] |  | > 10000 | EC50 [1]: > 10000 nM |
| CCS(=O)(=O)N1CCn2c(-c3ccccc3)nc(C(=O)N[C@@H](C)c3ccccc3)c2C1 [Compound 113, (S)-7-(ethylsulfonyl)-3-phenyl-N-(1-phenylethyl)-5,6,7,8-tetrahydroimidazo[1,5-a]pyrazine-1-carboxamide] | − | > 10000 |  |
| CNC(=O)[C@@H](NC(=O)c1nc(C2CCCCC2)n2c1CN(C)CC2)C(C)(C)C [Compound 305, (S)-3-cyclohexyl-N-(3,3-dimethyl-1-(methylamino)-1-oxobutan-2-yl)-7-methyl-5,6,7,8-tetrahydroimidazo[1,5-a]pyrazine-1-carboxamide] | + | > 10000 |  |
| CC(C)CN1CCn2c(-c3ccccc3)nc(C(=O)NC3CCCCC3)c2C1 [Compound 165, N-cyclohexyl-7-isobutyl-3-phenyl-5,6,7,8-tetrahydroimidazo[1,5-a]pyrazine-1-carboxamide] | − | > 10000 |  |
| CNC(=O)[C@@H](NC(=O)c1nc(-c2ccc(F)cc2F)n2c1CN(C)CC2)C(C)(C)C [Compound 248, (S)-3-(2,4-difluorophenyl)-N-(3,3-dimethyl-1-(methylamino)-1-oxobutan-2-yl)-7-methyl-5,6,7,8-tetrahydroimidazo[1,5-a]pyrazine-1-carboxamide] |  | > 10000 | EC50 [1]: > 10000 nM |
| CC(C)C[C@H](NC(=O)c1nc(-c2cc(Cl)ccc2F)n2c1CN(C)CCC2)C(N)=O [Compound 569, (S)-N-(1-amino-4-methyl-1-oxopentan-2-yl)-3-(5-chloro-2-fluorophenyl)-8-methyl-6,7,8,9-tetrahydro-5H-imidazo[1,5-a][1,4]diazepine-1-carboxamide] | + |  | +/− HCB1 [2]: + |
| CC12CCC(C1)C(C)(C)C2NC(=O)c1nc(-c2ccccc2)n2c1CN(C(=O)c1ccco1)CC2 (centres unmarked) [Compound 122, 7-(furan-2-carbonyl)-3-phenyl-N-(1,3,3-trimethylbicyclo[2.2.1]heptan-2-yl)-5,6,7,8-tetrahydroimidazo[1,5-a]pyrazine-1-carboxamide] | − |  | EC50 [2, 4]: > 10000 nM |

From US7517874B2 (priority 2007, dated 2009)
